Source: US20250248965A1, “HEXAHYDRONAPHTHALEN-2-ONE DERIVATIVES FOR USE AGAINST A CORONAVIRUS INFECTION” (TÁMOGATOTT KUTATÓCSOPORTOK IRODÁJA, priority 2021, published 2025)

Tests used:
Assay type in all cases: cell-based
[1] = Alamar Blue cell viability (cytotoxicity) assay; conditions: African green monkey, Vero E6 host cells
Experimental: (§1) Compounds to be tested were dissolved in DMSO at 20 mM concentration and stored at −20° C. Stock solutions were diluted with DMEM medium to result 100 μM concentration. The DMSO content was 0.5% in the highest concentration containing wells.
(§2) In vitro cytotoxicity testing of the compounds was performed by the Alamar Blue cell viability assay. Briefly, Vero E6 cells were plated in a 96-well flat bottom tissue culture plates in 10% FBS containing DMEM media (5000 cells/100 μL) one day prior to experiment. Before the test, 50 μL supernatant was removed and replaced with 50 μL DMEM serum free (SFM) medium. […] Two days after, 20 μL Alamar Blue (resazurin sodium salt, Merck) solution (0.15 mg/mL in PBS, filtered […] Merck) was added to each well and after 3-3.5 hrs of incubation the fluorescence was measured at λEx=530/30 and at λEM=610/10 nm using a Synergy H4 multi-mode microplate reader (BioTek). All measurements were performed in quadruplets and the mean IC50 values together with SEM were represented on the graphs.

Vero E6 cells = experiment: Alamar Blue cell viability (cytotoxicity) assay; conditions: 48 hrs
Experimental: as §1, §2

SARS-CoV-2 [2] = experiment: Viral copy number by RT-qPCR from supernatant; conditions: supernatant of infected Vero E6 cells
SARS-CoV-2 [3] = conditions: SARS-CoV-2 infected Vero E6 cells, 48 hours of incubation

CCN(CC)CCCC(C)Nc1ccnc2cc(Cl)ccc12 (stereo not drawn) [Chloroquine]
IC50 at 48 h [1]: 34 µM

CC(=O)Oc1ccccc1C(=O)Nc1ncc([N+](=O)[O-])s1 [Nitazoxanide]
toxicity on the host cells (Vero E6 cells; range up to 100 μM): around 35%

C=C(C)[C@@H]1C[C@@]2(C)C(=CC1=O)CC[C@@H](O)[C@@H]2C [Petasol, (3S,4aR,5R,6R)-6-hydroxy-4a,5-dimethyl-3-prop-1-en-2-yl-3,4,5,6,7,8-hexahydronaphthalen-2-one]
viral RNA copy numbers (antiviral effect) (SARS-CoV-2 [2]): high similarity with the TCID50 values | in vitro cytotoxicity (not cytotoxic up to) (Vero E6 cells; Vero E6 host cells): > 100 µM

CC(C)=C1C[C@@]2(C)C(=CC1=O)CC[C@@H](O)[C@@H]2C [isopetasol, (4aR,5R,6R)-6-hydroxy-4a,5-dimethyl-3-propan-2-ylidene-5,6,7,8-tetrahydro-4H-naphthalen-2-one]
antiviral effect (virus-induced CPE, TCID50/mL) (SARS-CoV-2 [3]): markedly different than petasol

C=C(C)[C@H]1C[C@@]2(C)C(=CC1=O)CC[C@@H](O)[C@@H]2C [neopetasol, (3R,4aR,5R,6R)-6-hydroxy-4a,5-dimethyl-3-prop-1-en-2-yl-3,4,5,6,7,8-hexahydronaphthalen-2-one]
antiviral effect (virus-induced CPE, TCID50/mL) (SARS-CoV-2 [3]): markedly different than petasol
